One assay deals with T1, PLC-δ PH domain (Homo sapiens, UniProt P51178).
T1 construct: 100 nM PLC-δ PH domain
T1 sequence (P51178 21-130 limits assumed): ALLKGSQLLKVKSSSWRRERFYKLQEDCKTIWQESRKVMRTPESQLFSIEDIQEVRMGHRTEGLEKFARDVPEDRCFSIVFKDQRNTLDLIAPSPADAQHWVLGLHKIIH
The experiment in a line: FP assay, PIP2 binding to PLC-δ PH domain. Conditions: 15 nM TMR-PIP2, 100 nM PLC-δ PH domain, 0-200 μM. The protocol:
FIG. 5 is a graph depicting specificity and concentration-dependent competitive inhibition of PIP3-PH domain interaction by PIT-1 and PIT-2. 15 nM TMR-conjugated PIP2 were incubated with 100 nM PLC-δ PH domain in the presence or absence of the indicated concentrations of PITs (0-200 μM) for 30 min, followed by FP measurement.
(§1) In order to identify compounds that disrupt the interaction between PIP3 and PH domains, a high-throughput fluorescence polarization (FP)-binding assay was developed using recombinant 1-123 amino acid N-terminal fragment of human Akt1 (also referred to herein simply as Akt), encompassing the PH domain (PH123 protein), and fluorescent NBD-labeled PIP3 molecule. The amino acid sequence of human Akt1 is publicly available as, for example, GenBank Accession No. NP_001014432.1 (SEQ ID NO:1), and the corresponding DNA sequence is publicly available as, for example, GenBank Accession No. NM_001014432. Briefly, 5 μM recombinant GST fusion proteins containing 1-123 a.a. N-terminal fragment of human Akt1 (PH 123) or 100 nM 441-551 a.a. region of human PDK1 were incubated with 15 nM TMR-labeled PIP3, PIP2, or PIP5 in buffer containing 50 mM Tris-HCl (pH 7.5), 150 mM NaCl, and 5 mM b-ME for 15 min at room temperature in the dark. FP values were determined using Wallac Victor 3 plate reader. […]

A further assay concerns cells. The experiment in a line: subG1 DNA content. Format: cell-based. Conditions: P<0.01. From the text:
Since PI3K/PIP3/Akt signaling plays a critical role in the inhibition of apoptosis (Datta S R et al. (1999) Genes Dev 13:2905-27), the possibility that PITs induce apoptosis was examined. […] Proapoptotic Bcl-2 family members Bax and Bak are important mediators of apoptosis. Wei M C et al. (2001) Science 292:727-30. […] Non-apoptotic mechanisms of cell death may also play some additional, albeit less important, role in PIT-induced killing, as some cell death was still observed in Bax/Bak-deficient cells and in the presence of zVAD.fmk.

Another assay deals with T2, PDK1 PH domain (Homo sapiens, UniProt O15530).
T2 construct: 100 nM 441-551 a.a. region of human PDK1; made in house; host or cells: E. coli BL21(DE3)
Kind of assay: FP assay, PIP3 binding to PDK1 PH domain. Particulars: 15 nM TMR-PIP3, 100 nM PDK1 PH domain, 0-200 μM. As to the method: FIG. 4 is a graph depicting concentration-dependent competitive inhibition of PIP3-PH domain interaction by PIT-1 and PIT-2. 15 nM TMR-conjugated PIP3 were incubated with 100 nM PDK1 PH domain in the presence or absence of the indicated concentrations of PITs (0-200 μM) for 30 min, followed by FP measurement.
as §1

For assay [1], the system named is multiple cancer cell lines. The experiment in a line: cancer cell viability (MTS or ATP assay), multiple cancer cell lines. Particulars: for viability of multiple cancer cell lines: B16, Jurkat, Lewis lung carcinoma, A549, 4T1, SUM-159, MDA-MB-231, MTS or ATP assay. Format: cell-based. The protocol: Different cancer cell lines U87MG, SUM 159, A549, and MDA-MB-231 were incubated with the indicated concentrations of PIT-1 (12.5-100 μM) for 48 hr. Cell viability was determined using ATP assay.
Based on the critical role of PIP3-dependent Akt signaling in the regulation of cell survival, the effect of PIT-1 on the cancer cell viability was tested. Cancer cells were seeded into 96-well plates (white plates for ATP assay; black plates for fluorescent assay; clear plates for MTS assay) at the density of 5-10×10^3 cells per well in 100 μl of the appropriate media. Compounds were added at a series of concentrations and incubated for different times. For the ATP assay, a luminescence-based commercial kit (CellTiter-Glo, Promega, Madison, Wis.) was used. Thirty microliters of cell lysis/ATP detection reagent was added to each well, mixed for 10 min at room temperature, and the luminescence was measured using a Wallac Victor 3 plate reader (Perkin-Elmer, Wellesley, Mass.). For the MTS assay, a CellTiter 96 AQueous Non-Radioactive Cell Proliferation Assay Kit (Promega, Madison, Wis., USA) was used. Twenty microliters of the combined MTS/PMS solution was added into each well, incubated for 4 hr at 37° C., and the absorbance at 490 nm was measured using a Wallac Victor 3 plate reader. For the Sytox cell death assay, measuring loss of plasma membrane integrity, cells were incubated with 1 μM Sytox Green reagent (Molecular Probes, Eugene, Oreg.) for 30 min at 37° C. and the fluorescence intensity was measured using Wallac Victor 3 plate reader with excitation at 485 nm and emission at 545 nm. Next, 5 μl of 20% (v/v) Triton X-100 solution was added to each well and incubated for 1 hr at 37° C., and the signal was measured again. The ratio of values (percentage of dead cells in each well) before and after Triton X-100 treatment was calculated and normalized to the relevant controls not subjected to the cytotoxic stimuli. IC50 values were determined using Origin6 software (MicroCal, LLC, Northampton, Mass.).
(Tetrazolium assays rely on reduction of a dye to a coloured formazan, in cell work by metabolically active cells.)

For another assay, the target named is T3, Btk PH domain (Homo sapiens, UniProt Q06187).
T3 construct: Btk PH domain-GFP vector was purchased from Signagen Laboratories
Kind of assay: PH domain translocation assay, GFP-fused Btk PH domain. Format: cell-based. Conditions: 100 μM, 2 hr, PDGF stimulation. The protocol: Cells were transfected with the corresponding GFP-fusion vectors, serum starved overnight, and incubated with 100 μM PITs or PIT-1is for 2 hr, followed by stimulation with 100 ng/ml PDGF or 250 ng/ml PMA for 5 min. The translocation was analyzed using fluorescent microscope and was quantitated by counting the number of cells with translocated PH domains in five random fields.
To begin characterizing cellular activity of PITs, a PH domain translocation assay was performed, measuring PIP3-induced association of GFP-fused PH domains with the plasma membrane. This method provides useful means for monitoring status of the PH domain/PIP3 binding in the intact cells. Varnai P et al. (1999) J Biol Chem 274:10983-9. Several PH-domain-containing proteins, which are known to bind PIP3 specifically and efficiently, were examined. […] Oikawa T et al. (2004) Nat Cell Biol 6:420-6.

T3 sequence (Q06187 3-133 limits assumed): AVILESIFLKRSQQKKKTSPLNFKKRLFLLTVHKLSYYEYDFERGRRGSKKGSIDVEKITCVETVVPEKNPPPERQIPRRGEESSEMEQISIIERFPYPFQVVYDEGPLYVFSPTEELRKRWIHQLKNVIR
T2 sequence (O15530 441-551): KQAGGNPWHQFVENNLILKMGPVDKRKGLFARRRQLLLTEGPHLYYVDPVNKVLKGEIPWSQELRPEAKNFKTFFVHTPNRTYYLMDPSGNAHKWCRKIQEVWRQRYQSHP

Consider `O=C(NC(=S)Nc1cc([N+](=O)[O-])cc(Cl)c1O)c1ccccc1` [PIT-1], for which the “inhibition of interaction between PIP2 and PH domain of PLC-δ” value at PLC-δ PH domain is recorded as “failed to inhibit”. The “subG1 DNA content in cells” value with cells is “significant increase”. The “inhibition of binding of PIP3 to the PH domain of PDK1” value on PDK1 PH domain is “inhibited binding”. The “viability of U87MG, SUM 159, A549 and MDA-MB-231 cells” value in assay [1] (12.5-100 μM, 48 hr, ATP assay) is “reduces viability”. Besides, in assay [1], the “viability of multiple cancer cell lines” value is “reduced viability”. In addition, the “inhibition of translocation of Btk PH domain to the plasma membrane” value against Btk PH domain is listed as “significantly inhibited”.
For `O=C1NC(=S)S/C1=C\c1cc(O)c([N+](=O)[O-])cc1Cc1ccccc1` [PIT-2], the “inhibition of interaction between PIP2 and PH domain of PLC-δ” value at PLC-δ PH domain is on record as “failed to inhibit”. In addition, in the assay on cells, the “subG1 DNA content in cells” value was “significant increase”. In addition, on PDK1 PH domain, the “inhibition of binding of PIP3 to the PH domain of PDK1” value is “inhibited binding”. For the same compound, the “viability of multiple cancer cell lines” value in assay [1] is recorded as “reduced viability”. The “inhibition of translocation of Btk PH domain to the plasma membrane” value against Btk PH domain is “significantly inhibited”.

(Values after patent US20120136033A1, “Small Molecule Antagonists of Phosphatidylinositol-3,4,5-Triphosphate (PIP3) and Uses Thereof” (President and Fellows of Harvard College, priority 2009, published 2012).)
